The results in this text go back to patent US4666931A, “Benzofuran derivatives useful in treating diabetic complications” (Kaken Pharmaceutical Co., Ltd., priority 1984, dated 1987).

pIC50: −log10 of the molar value. Read-outs that look alike come from different tables or passages of the source. Where only a bound is given, the exact number is not on record here.

The target of data set [1] is T1, aldose reductase from rat lens (Rattus norvegicus, UniProt P07943).
T1 construct: the supernatant was prepared as the crude enzyme solution; from tissue; host or cells: lens of male Wistar rats, 10,000 g supernatant of homogenate (crude enzyme)
Put plainly: Aldose reductase inhibiting activity. The following applies: DL-glyceraldehyde substrate, Table 2, read-out: IC50 (50% inhibition concentration in M). It counts as biochemical. The method, then: Wistar male rats were sacrificed by decapitation and the lenses were taken out to be homogenized with a 0.1M phosphate buffer [pH 6.8, containing 1 mM of mercaptoethanol and 1 mM of nicotinamide-adenine dinucleotide phosphate (NADP)]. The homogenate was then centrifuged at 10,000 g for 15 minutes and the supernatant was prepared as the crude enzyme solution.

Data set [2] is described as follows: Acute toxicity test in mice (oral). The following applies: mouse, in vivo, po. The protocol:
(§1) Acute toxicity test in mice was carried out on the benzofuran derivatives of the compound Nos. 3, 5, 9, 21, 23, 26, 29 and 34.

Another data set has as its system mice. Description: Acute toxicity test in mice (oral). The following applies: mice, oral; for death up to the dose of 3 g/kg body weight: up to 3 g/kg. The method, then: as §1
Data set [3] relates to aggregation of the washed rabbit platelet by thrombin. Put plainly: Platelet aggregation inhibiting activity (washed rabbit platelet, thrombin). It counts as cell-based. The following applies: for pIC50: Oryctolagus cuniculus, Platelet; for platelet aggregation inhibiting activity relative to Persantin: compared with Persantin (dipyridamole). The method, then: Blood samples were collected from the auricular blood vessel of rabbits (white local breed), and washed platelets were prepared therefrom by the method of Baenziger et al. (N. L. Baenziger and P. W. Majerus, Methods Enzymol., 31, 149 to 155 (1974). The platelets were suspended in a 15 mM Tris-hydrochloric acid buffer with a final concentration of 6×10^8 cells/ml (Tris: tris(hydroxymethyl)aminomethane). Each test compound of the compound Nos. 5, 8, 9, 11, 23, 29, 30 and 33 and Persantin® was added thereto and incubation was carried out at 37° C. for 2 minutes. Then the platelets were stimulated by addition of thrombin (0.2 unit/ml of final concentration; made by Mochida Pharmaceutical Co.) and the aggregation inhibiting activity was estimated by the observation of the aggregation reaction using an aggregometer (made by Briston Co.).
The results are shown in Table 3 in terms of IC50 (50% inhibiton concentration in M).

Data set [4] concerns production of malondialdehyde from arachidonic acid by rabbit platelets. Put plainly: Arachidonic acid metabolism inhibiting activity: production of malondialdehyde from arachidonic acid by rabbit platelets. It counts as cell-based. The following applies: Oryctolagus cuniculus, Platelet, arachidonic acid 0.2 mM, read-out: concentration showing 50% inhibition against the production of malondialdehyde from arachidonic acid. The protocol:
Washed rabbit platelets prepared as in the platelet aggregation inhibiting activity test were suspended in 15 mM Tris-hydrochloric acid buffer with a final concentration of 1×10^8 cell/ml, to which each test compound of the compound Nos. 8, 13, 14, 19, 20, 23, 29, 30 and 33 were added and the resultant was preincubated at 37° C. for five minutes. Then arachidonic acid (a final concentration: 0.2 mM, made by Sigma Chemical Co.) was added thereto and the mixture was preincubated for 1 minute. An amount of the produced malondialdehyde was measured according to the thiobarbiturates method (Ed. Aoki and Shibata, Ketsuekigaku Kenkyukensaho, P 441 to 447).

In the next data set the test system is cyclooxygenase. Description: Cyclooxygenase inhibition: malondialdehyde production from arachidonic acid, 9000 G supernatant of lung homogenate from guinea pig. It counts as biochemical. The following applies: guinea pig lung 9000 G supernatant, compared with aspirin. The method, then: Lung from guinea pig was washed with physiological saline and homogenized in 0.1M Tris-hydrochloric acid buffer to prepare a supernatant by cooled centrifugation (9000 G).
The inhibiting activity against cyclooxygenase was measured by using the 9000 G supernatant as a source of cyclooxygenase in the presence of 1 mM epinephiline.

The mark [5] stands for this setting: range for nine compounds, read-out: concentration showing 50% inhibition against the aggregation of the washed rabbit platelet by thrombin.
Setting [6] is: washed rabbit platelets, thrombin 0.2 unit/ml, 37° C., Table 3, read-out: IC50 (50% inhibition concentration in M).

Broadly, the LD50 is the dose expected to kill half of the subjects tested. A lower LD50 goes with greater toxicity. Turning to `CCCOc1ccc(S(=O)(=O)NCC(=O)O)c2cc(C(C)=O)oc12` [Compound 3, 2-acetyl-4-(N-carboxymethylsulfamoyl)-7-n-propoxybenzofuran], the pIC50 in data set [1] was 7.22. The same molecule yielded an LD50 at 336 h in data set [2] of more than 3000 mg/kg. Further, in the data set on mice, the “death up to the dose of 3 g/kg body weight” value (“death up to the dose” for short) is listed as “no death”.
On to `CC(=O)COc1ccc(S(=O)(=O)NCC(=O)O)c2cc(C(C)=O)oc12` [Compound 26, 2-acetyl-4-(N-carboxymethylsulfamoyl)-7-acetonyloxybenzofuran], for which, in data set [1], the pIC50 was 6.70. This molecule also registered an LD50 at 336 h in data set [2] of more than 2000 mg/kg. Moreover, the “death up to 2 g/kg body weight” value in the data set on mice is reported as “no death”.
On to `CC(=O)c1cc2c(S(=O)(=O)NCC(=O)O)ccc(OCc3ccc([N+](=O)[O-])cc3)c2o1` [Compound 23, 2-acetyl-4-(N-carboxymethylsulfamoyl)-7-p-nitrobenzyloxybenzofuran], for which the pIC50 in data set [1] is 7.30; in data set [3] (setting [5]), 3.70 to 4.70; in data set [3] (setting [6]), 4.10; in data set [4], 4.00 to 5.00. In data set [3], the “platelet aggregation inhibiting activity relative to Persantin” value is on record as “equivalent to or more than”. In data set [2], this molecule registered an LD50 at 336 h of more than 2000 mg/kg. For the same molecule, the “death up to 2 g/kg body weight” value in the data set on mice is listed as “no death”. For the same molecule, in the data set with cyclooxygenase, the “inhibition against malondialdehyde production relative to aspirin” value is recorded as “equivalent to or more than”.
For the molecule `CCCCOc1ccc(S(=O)(=O)N(C)CC(=O)O)c2cc(C(C)=O)oc12` [Compound 9, 2-acetyl-4-(N-methyl-N-carboxymethylsulfamoyl)-7-n-butoxybenzofuran], the pIC50 was 6.00 in data set [1], 3.70 to 4.70 in data set [3] (setting [5]) and 3.22 in data set [3] (setting [6]). Also, the “platelet aggregation inhibiting activity relative to Persantin” value in data set [3] is listed as “equivalent to or more than”. In data set [2], the LD50 at 336 h is more than 3000 mg/kg. Further, the “death up to the dose” value with mice is reported as “no death”.
Take `CC(=O)c1cc2c(S(=O)(=O)NCC(=O)O)ccc(OCc3ccccc3)c2o1` [Compound 29, 2-acetyl-4-(N-carboxymethylsulfamoyl)-7-benzyloxybenzofuran]: the pIC50 is 7.30 in data set [1], 3.70 to 4.70 in data set [3] (setting [5]), 4.46 in data set [3] (setting [6]) and 4.00 to 5.00 in data set [4]. For the same molecule, the “platelet aggregation inhibiting activity relative to Persantin” value in data set [3] is listed as “equivalent to or more than”. The molecule also gave an LD50 at 336 h in data set [2] of more than 2000 mg/kg. In addition, in the data set with mice, the “death up to 2 g/kg body weight” value is on record as “no death”. For the same molecule, the “inhibition against malondialdehyde production relative to aspirin” value in the data set on cyclooxygenase was “equivalent to or more than”.
On to `CCCCCOc1ccc(S(=O)(=O)NCC(=O)O)c2cc(C(C)=O)oc12` [Compound 5, 2-acetyl-4-(N-carboxymethylsulfamoyl)-7-n-pentyloxybenzofuran], for which the values for the pIC50 in data set [1] and in data set [3] (setting [5]) were 7.30 and 3.70 to 4.70, respectively. Besides, in data set [3], the “platelet aggregation inhibiting activity relative to Persantin” value is on record as “equivalent to or more than”. In data set [2], this molecule returned an LD50 at 336 h of more than 3000 mg/kg. Moreover, the “death up to the dose” value in the data set on mice is listed as “no death”.
`CC(=O)c1cc2c(S(=O)(=O)N(CC(=O)O)Cc3ccc(Cl)cc3)ccc(OCc3ccc(Cl)cc3)c2o1` [Compound 34, 2-acetyl-4-(N-p-chlorobenzyl-N-carboxymethylsulfamoyl)-7-p-chlorobenzyloxybenzofuran]: the pIC50 in data set [1] is 6.10. In addition, the LD50 at 336 h in data set [2] was more than 2000 mg/kg. The “death up to 2 g/kg body weight” value with mice is “no death”.
Turning to `CCc1oc2ccc([N+](=O)[O-])cc2c1S(=O)(=O)NCC(=O)O` [Compound 21, 2-ethyl-3-(N-carboxymethylsulfamoyl)-5-nitrobenzofuran], the pIC50 in data set [1] is 7.30. This molecule also displayed a median lethal dose (LD50) at 336 h in data set [2] of more than 3000 mg/kg. Moreover, the “death up to the dose” value in the data set on mice is reported as “no death”.
